This is an account of results in patent US20260042755A1, “GPR6 INVERSE AGONISTS” (MapLight Therapeutics, Inc., priority 2022, published 2026).

Common to all, as to type: cell-based
The target in one assay is T1, hERG (Homo sapiens, UniProt Q12809).
T1 construct: expressed in transfected cells; host or cells: HEK293
The assay is described as follows: hERG assay (whole-cell manual patch clamp, stably-transfected HEK293/hERG cells). Particulars: tail current, test concentrations 0.1-30 μM, read-out: hERG Assay GMean IC50. How it is done:
Stably-transfected HEK293/hERG cells were seeded on poly-ornithine coated glass coverslip and incubated 3-24 h in 35 mm dishes before transferring to the recording chamber. The recording chamber on the stage of a Nikon inverted microscope is continuously perfused with extracellular solution (1-1.5 ml/min). Electrodes were pulled, polished and filled with intracellular solution (tip resistance ˜3-5MΩ). After establishing a tight seal (resistances 1GΩ) between pipette tip and cell membrane, a brief suction is applied to rupture the patched membrane to establish the whole-cell patch clamp configuration. Cells are voltage clamped at −80 mV. The cell was first depolarized to +40 mV for 2s to activate hERG current, and then clamped to −40 mV for 3s to record a tail current. Test articles in various concentrations controlled by a voltage command 8 pinch valve superfusion system were delivered to the proximity of the test cell to record hERG current changes under different conditions with recording done within 30 min.
Intracellular solution (in mM): 130 KCl, 1.0 MgCl2, 5.0 EGTA, 10 HEPES, 5.0 Mg-ATP; adjust pH to 7.25 with 1M KOH; osmolarity approximately at 280 mOsm. Extracellular solution (in mM): 137 NaCl, 1.8 CaCl2, 1.0 MgCl2, 4.0 KCl, 10 Glucose, 10 HEPES; adjust pH to 7.4 with 1 M NaOH; osmolarity approximately at 295 mOsm. Original compound was dissolved in 100% DMSO, then serial diluted with DMSO to respective 1000× of test concentration to make DMSO sub-stocks. The DMSO sub-stocks were diluted 1000 fold to testing solutions (0.1, 0.3, 1, 3, 10, and 30 μM) using extracellular solution. Rapid exposure to test compound was achieved by utilizing a multichannel solenoid-operated flow system. Testing compounds were sequentially applied in increasing order of concentrations after initial application of vehicle solution on EPC-10 manual patch clamping device with the following: • Amplifier: HEKA EPC-10 USB • Nikon Ti-S Inverted Microscope • MP-285/R micromanipulator system • DAD-8VCPP voltage command Pinch valve superfusion system • TMC Shock Absorption Platform • Peristaltic Pump • Sutter Puller • Vapor pressure osmometer • Temperature controller
For orientation: hERG is a cardiac potassium channel; its block is linked to QT prolongation.

The next assay deals with T2, GPR6 (Homo sapiens, UniProt P46095).
T2 construct: expressed in transfected cells; host or cells: CHO cells
The assay is described as follows: GPR6 antagonist functional cAMP assay (LANCE Ultra cAMP TR-FRET, CHO cells stably expressing GPR6). In short, it runs like this:
(§1)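 We measure cAMP by TR-FRET (665 nm) in cells held in glucose-containing Krebs-Ringer buffer with BSA and a PDE inhibitor, after a 45 min, 37 °C compound incubation. IC50s derive from a four-parameter logistic fit.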
On the technique in general: cAMP levels reflect the balance of adenylyl cyclase and phosphodiesterase activity.

Another assay addresses T3, GPR3 (Homo sapiens, UniProt P46089).
T3 construct: expressed in transfected cells; host or cells: CHO cells
The assay is described as follows: GPR3 antagonist functional cAMP assay (LANCE Ultra cAMP TR-FRET, CHO cells stably expressing GPR3). The method in brief:
as §1

Some results are limits rather than exact numbers.

T2 sequence (P46095 whole entry): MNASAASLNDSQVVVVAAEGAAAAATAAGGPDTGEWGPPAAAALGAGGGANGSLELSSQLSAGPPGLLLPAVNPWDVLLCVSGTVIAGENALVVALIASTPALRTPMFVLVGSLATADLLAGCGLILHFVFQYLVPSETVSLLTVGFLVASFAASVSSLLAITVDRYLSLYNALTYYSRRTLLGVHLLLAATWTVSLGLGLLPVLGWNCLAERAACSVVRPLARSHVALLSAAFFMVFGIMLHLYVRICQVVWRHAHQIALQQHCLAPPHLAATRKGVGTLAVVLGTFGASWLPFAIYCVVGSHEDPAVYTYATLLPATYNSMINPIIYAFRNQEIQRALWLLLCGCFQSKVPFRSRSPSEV
T3 sequence (P46089 whole entry, species assumed): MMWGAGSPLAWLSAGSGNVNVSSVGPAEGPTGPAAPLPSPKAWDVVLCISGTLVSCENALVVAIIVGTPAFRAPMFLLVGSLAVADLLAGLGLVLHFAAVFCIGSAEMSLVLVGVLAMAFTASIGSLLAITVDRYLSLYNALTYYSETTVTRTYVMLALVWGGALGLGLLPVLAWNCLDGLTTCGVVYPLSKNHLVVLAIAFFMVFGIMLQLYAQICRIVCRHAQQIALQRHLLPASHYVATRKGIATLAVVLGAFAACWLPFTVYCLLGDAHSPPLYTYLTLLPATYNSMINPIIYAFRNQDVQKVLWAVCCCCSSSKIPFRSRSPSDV
T1 sequence (Q12809 whole entry): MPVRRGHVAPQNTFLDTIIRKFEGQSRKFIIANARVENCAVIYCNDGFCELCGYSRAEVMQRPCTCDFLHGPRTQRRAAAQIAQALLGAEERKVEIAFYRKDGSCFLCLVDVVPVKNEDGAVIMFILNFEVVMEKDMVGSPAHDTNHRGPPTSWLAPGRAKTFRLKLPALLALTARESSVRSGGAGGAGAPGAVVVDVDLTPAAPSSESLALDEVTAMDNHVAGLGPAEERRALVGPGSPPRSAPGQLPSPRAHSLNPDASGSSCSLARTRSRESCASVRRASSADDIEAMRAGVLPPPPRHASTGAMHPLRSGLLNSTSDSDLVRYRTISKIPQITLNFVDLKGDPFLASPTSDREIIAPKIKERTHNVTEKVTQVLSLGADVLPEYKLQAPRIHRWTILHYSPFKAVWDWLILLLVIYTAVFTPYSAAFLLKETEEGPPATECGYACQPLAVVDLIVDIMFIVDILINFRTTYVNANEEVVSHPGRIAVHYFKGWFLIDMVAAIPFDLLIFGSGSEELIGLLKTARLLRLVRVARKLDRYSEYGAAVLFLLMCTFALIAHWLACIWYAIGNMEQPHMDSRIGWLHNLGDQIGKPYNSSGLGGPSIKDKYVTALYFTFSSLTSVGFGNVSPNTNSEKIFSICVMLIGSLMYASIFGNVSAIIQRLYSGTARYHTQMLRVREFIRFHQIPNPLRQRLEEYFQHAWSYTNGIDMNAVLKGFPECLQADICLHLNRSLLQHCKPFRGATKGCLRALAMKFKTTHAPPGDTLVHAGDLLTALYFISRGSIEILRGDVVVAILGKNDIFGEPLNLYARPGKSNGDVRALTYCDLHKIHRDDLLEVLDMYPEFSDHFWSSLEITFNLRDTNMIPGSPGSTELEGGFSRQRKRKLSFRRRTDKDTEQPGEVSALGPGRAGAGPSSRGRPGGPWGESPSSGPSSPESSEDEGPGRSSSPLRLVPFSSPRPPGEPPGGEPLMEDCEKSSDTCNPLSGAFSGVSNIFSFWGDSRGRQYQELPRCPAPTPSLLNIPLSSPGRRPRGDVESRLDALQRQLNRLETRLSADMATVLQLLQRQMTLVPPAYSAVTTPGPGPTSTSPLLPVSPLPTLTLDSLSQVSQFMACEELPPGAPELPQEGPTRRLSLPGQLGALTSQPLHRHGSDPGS

Turning to `CCn1cc(-c2nc3cnc([C@H](O)C(C)(C)O)cc3nc2N2CCN(Cc3ccc(F)cc3F)CC2)cn1` (single isomer, unassigned) [Compound 575], the IC50 (in general, the concentration that inhibits the measured activity by half) on hERG was 21.7 µM; at GPR6 (CHO cells stably expressing GPR6, cAMP assay), less than 100 nM; against GPR3 (CHO cells stably expressing GPR3, cAMP assay), 1000 to 30000 nM.
As to `CC(=O)N1CCc2nc(N3CCN(C(c4ccc(F)cc4F)C(F)(F)F)CC3)c(-c3cnn(C)c3)nc2C1` (stereo not drawn) [Compound 731, 1-(2-{4-[1-(2,4-difluorophenyl)-2,2,2-trifluoroethyl]-1-piperazinyl}-3-(1-methyl-4-pyrazolyl)-5,6,7,8-tetrahydro-1,4,6-triaza-6-naphthyl)-1-ethanone], the IC50 on GPR6 (procedure of Example 24) was 1000 to 30000 nM; on GPR3 (procedure of Example 24), no less than 30000 nM.
On the same counts, the results for `COC(=O)/C(C)=C/c1cc2nc(N3CCC(Oc4ccc(F)cc4F)CC3)c(-c3cnn(C)c3)nc2cn1` [Compound 734, methyl 3-{2-[4-(2,4-difluorophenoxy)-1-piperidyl]-3-(1-methyl-4-pyrazolyl)-1,4,6-triaza-7-naphthyl}methacrylate] are 1000 to 30000 nM and 1000 to 30000 nM.
Turning to `CC(=O)N1CCc2nc(N3CCC(Cc4ccc(F)cc4F)C3)c(-c3cnn(C)c3)nc2C1` (stereo not drawn) [Compound 738, 1-(2-{3-[(2,4-difluorophenyl)methyl]-1-pyrrolidinyl}-3-(1-methyl-4-pyrazolyl)-5,6,7,8-tetrahydro-1,4,6-triaza-6-naphthyl)-1-ethanone], the IC50 against GPR6 (procedure of Example 24) and against GPR3 (procedure of Example 24) was 1000 to 30000 nM each time.
Regarding `COC(=O)/C=C/c1cc2nc(N3CCC(Oc4ccc(F)cc4F)CC3)c(-c3cnn(C)c3)nc2cn1` [Compound 745, methyl 3-{2-[4-(2,4-difluorophenoxy)-1-piperidyl]-3-(1-methyl-4-pyrazolyl)-1,4,6-triaza-7-naphthyl}acrylate], the half-inhibitory concentration (IC50) against GPR6 (procedure of Example 24) and on GPR3 (procedure of Example 24) was 1000 to 30000 nM throughout.
For `CC(C)(O)CNc1cc2nc(-c3cnn(CF)c3)c(N3CCN(Cc4ccc(F)cc4F)CC3)nc2cn1` [Compound 757, 1-(3-{4-[(2,4-difluorophenyl)methyl]-1-piperazinyl}-2-[1-(fluoromethyl)-4-pyrazolyl]-1,4,6-triaza-7-naphthylamino)-2-methyl-2-propanol], the IC50 against GPR6 (procedure of Example 24) was in the range of 100 to 1000 nM; on GPR3 (procedure of Example 24), 1000 to 30000 nM.
For the compound `OCCNc1cc2nc(-c3cnn(CF)c3)c(N3CCN(Cc4ccc(F)cc4F)CC3)nc2cn1` [Compound 759, 2-(3-{4-[(2,4-difluorophenyl)methyl]-1-piperazinyl}-2-[1-(fluoromethyl)-4-pyrazolyl]-1,4,6-triaza-7-naphthylamino)ethanol], the IC50 was 100 to 1000 nM at GPR6 (procedure of Example 24) and 1000 to 30000 nM on GPR3 (procedure of Example 24).
In the same order, the values of `OCCOc1cc2nc(-c3cnn(CF)c3)c(N3CCN(Cc4ccc(F)cc4F)CC3)nc2cn1` [Compound 760, 2-(3-{4-[(2,4-difluorophenyl)methyl]-1-piperazinyl}-2-[1-(fluoromethyl)-4-pyrazolyl]-1,4,6-triaza-7-naphthyloxy)ethanol] are 100 to 1000 nM and 100 to 1000 nM.
For `FCn1cc(-c2nc3cc(Cl)ncc3nc2N2CCN(Cc3ccc(F)cc3F)CC2)cn1` [Compound 761, 7-chloro-3-{4-[(2,4-difluorophenyl)methyl]-1-piperazinyl}-2-[1-(fluoromethyl)-4-pyrazolyl]-1,4,6-triazanaphthalene], the figures for the IC50 against GPR6 (procedure of Example 24) and against GPR3 (procedure of Example 24) were 100 to 1000 nM and 1000 to 30000 nM, respectively.
In the same order, the values of `COCCNc1cc2nc(-c3cnn(CF)c3)c(N3CCN(Cc4ccc(F)cc4F)CC3)nc2cn1` [Compound 762, (2-methoxyethyl)(3-{4-[(2,4-difluorophenyl)methyl]-1-piperazinyl}-2-[1-(fluoromethyl)-4-pyrazolyl]-1,4,6-triaza-7-naphthyl)amine] are 1000 to 30000 nM and 1000 to 30000 nM.
In the same order, the values of `O=C(O)c1cc2nc(-c3cnn(CF)c3)c(N3CCN(Cc4ccc(F)cc4F)CC3)nc2cn1` [Compound 765, 3-{4-[(2,4-difluorophenyl)methyl]-1-piperazinyl}-2-[1-(fluoromethyl)-4-pyrazolyl]-1,4,6-triaza-7-naphthoic acid] are 1000 to 30000 nM and 1000 to 30000 nM.
Turning to `Cn1cc(-c2nc3cnc(C4CC4CO)cc3nc2N2CCC(Oc3ccc(F)cc3F)CC2)cn1` (stereo not drawn) [Compound 768, (2-{2-[4-(2,4-difluorophenoxy)-1-piperidyl]-3-(1-methyl-4-pyrazolyl)-1,4,6-triaza-7-naphthyl}cyclopropyl)methanol], the IC50 on GPR6 (procedure of Example 24) and on GPR3 (procedure of Example 24) was 1000 to 30000 nM in each case.
As for `Fc1ccc(F)c(CN2CCN(c3nc4cnc(-c5cnn(C(F)F)c5)cc4nc3-c3cnn(C(F)F)c3)CC2)c1` [Compound 774, 2,7-bis [1-(difluoromethyl)-4-pyrazolyl]-3-{4-[(2,5-difluorophenyl)methyl]-1-piperazinyl}-1,4,6-triazanaphthalene], the IC50 on GPR6 (procedure of Example 24) and against GPR3 (procedure of Example 24) was 1000 to 30000 nM in each case.
`CC(C)(O)C(O)c1cc2nc(-c3cn[nH]c3)c(N3CCC(=Cc4ccc(F)cc4F)CC3)nc2cn1` (stereo not drawn) [Compound 780, 1-(3-{4-[(2,4-difluorophenyl)methylene]-1-piperidyl}-2-(4-pyrazolyl)-1,4,6-triaza-7-naphthyl)-2-methyl-1,2-propanediol]: the IC50 against GPR6 (procedure of Example 24) was less than 100 nM; against GPR3 (procedure of Example 24), 100 to 1000 nM.
On the same counts, the results for `Cn1cc(-c2nc3cnccc3nc2N2CCc3c(cnn3-c3ccc(F)cc3F)C2)cn1` [Compound 788, 1-(2,4-difluorophenyl)-5-[3-(1-methyl-4-pyrazolyl)-1,4,6-triaza-2-naphthyl]-4,5,6,7-tetrahydro-1H-1,2,5-triazaindene] are no less than 30000 nM and no less than 30000 nM.
On to `CC(=O)N1CCc2nc(N3CCc4c(cnn4-c4ccc(F)cc4F)C3)c(-c3cnn(C)c3)nc2C1` [Compound 789, 1-{2-[1-(2,4-difluorophenyl)-4,5,6,7-tetrahydro-1H-1,2,5-triazainden-5-yl]-3-(1-methyl-4-pyrazolyl)-5,6,7,8-tetrahydro-1,4,6-triaza-6-naphthyl}-1-ethanone], for which the IC50 against GPR6 (procedure of Example 24) and at GPR3 (procedure of Example 24) was 1000 to 30000 nM each time.
`CC(=O)N1CCc2nc(N3CCC(C(C)c4ccc(F)cc4F)CC3)c(-c3cnn(C)c3)nc2C1` (stereo not drawn) [Compound 790, 1-(2-{4-[1-(2,4-difluorophenyl)ethyl]-1-piperidyl}-3-(1-methyl-4-pyrazolyl)-5,6,7,8-tetrahydro-1,4,6-triaza-6-naphthyl)-1-ethanone]: the IC50 against GPR6 (procedure of Example 24) was in the range of 100 to 1000 nM; against GPR3 (procedure of Example 24) it was 1000 to 30000 nM.
In the same order, the values of `CC(C)(O)C(O)c1cc2nc(N3CCN(Cc4ccc(F)cc4F)CC3)c(-c3ccc(F)c(N)n3)nc2cn1` (stereo not drawn) [Compound 791, 1-[3-(6-amino-5-fluoro-2-pyridyl)-2-{4-[(2,4-difluorophenyl)methyl]-1-piperazinyl}-1,4,6-triaza-7-naphthyl]-2-methyl-1,2-propanediol] are 100 to 1000 nM and 100 to 1000 nM.
For the compound `N#Cc1cc2nc(-c3cnn(CF)c3)c(N3CCN(Cc4ccc(F)cc4F)CC3)nc2cn1` [Compound 793, 3-{4-[(2,4-difluorophenyl)methyl]-1-piperazinyl}-2-[1-(fluoromethyl)-4-pyrazolyl]-1,4,6-triaza-7-naphthonitrile], the concentration for half-maximal inhibition (IC50) on GPR6 (procedure of Example 24) and at GPR3 (procedure of Example 24) was 1000 to 30000 nM each time.
As to `Nc1cc2nc(-c3cnn(CF)c3)c(N3CCN(Cc4ccc(F)cc4F)CC3)nc2cn1` [Compound 794, 3-{4-[(2,4-difluorophenyl)methyl]-1-piperazinyl}-2-[1-(fluoromethyl)-4-pyrazolyl]-1,4,6-triaza-7-naphthylamine], the results for the IC50 at GPR6 (procedure of Example 24) and against GPR3 (procedure of Example 24) were 100 to 1000 nM and 1000 to 30000 nM, respectively.
In the same order, the values of `O=c1cc2nc(-c3cnn(CF)c3)c(N3CCN(Cc4ccc(F)cc4F)CC3)nc2c[nH]1` [Compound 796, 3-{4-[(2,4-difluorophenyl)methyl]-1-piperazinyl}-2-[1-(fluoromethyl)-4-pyrazolyl]-1,4,6-triaza-7(6H)-naphthalenone] are 100 to 1000 nM and 1000 to 30000 nM.
For the compound `CC(C)(O)COc1cc2nc(-c3cnn(CF)c3)c(N3CCN(Cc4ccc(F)cc4F)CC3)nc2cn1` [Compound 798, 1-(3-{4-[(2,4-difluorophenyl)methyl]-1-piperazinyl}-2-[1-(fluoromethyl)-4-pyrazolyl]-1,4,6-triaza-7-naphthyloxy)-2-methyl-2-propanol], the IC50 against GPR6 (procedure of Example 24) fell in the range of 100 to 1000 nM; on GPR3 (procedure of Example 24), 1000 to 30000 nM.
